# Counter-ions that a name gives are not always drawn. Like-named read-outs stand apart in the source and are kept apart here.
# Experiments:
# [1] = target: T1, human cloned 5-HT6 receptors (Homo sapiens, UniProt P50406); test: 5-HT6 binding affinity ([3H]-LSD displacement, membranes of Hela cells)
# T1 construct: expressed in transfected cells; host or cells: HeLa cells
# Protocol: The affinity of test compounds for the serotonin 5-HT6 receptor is evaluated in the following manner. Cultured Hela cells expressing human cloned 5-HT6 receptors are harvested and centrifuged at low speed (1,000×g) for 10.0 min to remove the culture media. The harvested cells are suspended in half volume of fresh physiological phosphate buffered saline solution and recentrifuged at the same speed. This operation is repeated. The collected cells are then homogenized in ten volumes of 50 mM Tris.HCl (pH 7.4) and 0.5 mM EDTA. The homogenate is centrifuged at 40,000×g for 30.0 min and the precipitate is collected. The obtained pellet is resuspended in 10 volumes of Tris.HCl buffer and recentrifuged at the same speed. The final pellet is suspended in a small volume of Tris.HCl buffer and the tissue protein content is determined in aliquots of 10-25 μl volumes. Bovine Serum Albumin is used as the standard in the protein determination according to the method described in Lowry et al., J. Biol. Chem., 193:265 (1951). The volume of the suspended cell membranes is adjusted to give a tissue protein concentration of 1.0 mg/ml of suspension. The prepared membrane suspension (10 times concentrated) is aliquoted in 1.0 ml volumes and stored at −70° C. until used in subsequent binding experiments.
# Binding experiments are performed in a 96 well microtiter plate format, in a total volume of 200 μl. […] The test compounds are added in 20.0 μl volume.
# The reaction is allowed to proceed in the dark for 120 min at room temperature, at which time, the bound ligand-receptor complex is filtered off on a 96 well unifilter with a Packard Filtermate® 196 Harvester. The bound complex caught on the filter disk is allowed to air dry and the radioactivity is measured in a Packard TopCount® equipped with six photomultiplier detectors, after the addition of 40.0 μl Microscint®-20 scintillant to each shallow well. The unifilter plate is heat-sealed and counted in a PackardTopCount® with a tritium efficiency of 31.0%.
# Binding in the presence of varying concentrations of test compound is expressed as a percentage of specific binding in the absence of test compound. The results are plotted as log % bound versus log concentration of test compound. […] A linear regression line of data points is plotted, from which the IC50 value is determined and the Ki value is determined based upon the following equation: Ki=IC50/(1+L/KD) where L is the concentration of the radioactive ligand used and KD is the dissociation constant of the ligand for the receptor, both expressed in nM.
# [2] = [3H]-LSD 3.0 nM, Hela cell membranes expressing human cloned 5-HT6 receptors, 120 min at room temperature, read-out: 5-HT6 Binding Ki
# T1 sequence (P50406 whole entry): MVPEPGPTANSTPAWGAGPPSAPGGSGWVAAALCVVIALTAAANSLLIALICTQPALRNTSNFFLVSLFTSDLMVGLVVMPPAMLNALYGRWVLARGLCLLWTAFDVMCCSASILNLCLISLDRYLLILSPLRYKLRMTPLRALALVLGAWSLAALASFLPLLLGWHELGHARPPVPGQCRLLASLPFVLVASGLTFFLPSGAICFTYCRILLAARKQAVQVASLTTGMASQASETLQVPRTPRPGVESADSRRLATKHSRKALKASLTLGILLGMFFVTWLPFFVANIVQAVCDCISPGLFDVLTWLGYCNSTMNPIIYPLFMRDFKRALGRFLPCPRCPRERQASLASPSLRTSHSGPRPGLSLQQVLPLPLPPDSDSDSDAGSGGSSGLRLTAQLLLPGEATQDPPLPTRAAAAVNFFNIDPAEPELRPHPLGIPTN
Compound,"Ki [1, 2]",melting point,Ki [1]
"O=S(=O)(c1ccccc1)c1cn(CC2CCNCC2)c2ccccc12 [Example 4, 3-(Phenylsulfonyl)-1-(Piperidin-4-ylmethyl)-1H-indole Hydrochloride]",27 nM,–,–
"O=S(=O)(c1ccccc1)c1cn(C2CCCN(Cc3ccccc3)C2)c2ccccc12 (stereo not drawn) [Example 8, 1-(1-Benzylpiperidin-3-yl)-3-(phenylsulfonyl)-1H-indole]",122 nM,–,–
"O=S(=O)(c1ccccc1)c1cn(C2CCCNC2)c2ccccc12 (stereo not drawn) [Example 9, 3-(Phenylsulfonyl)-1-(piperidin-3-yl)-1H-indole Hydrochloride]",13 nM,–,–
O=S(=O)(c1ccccc1)c1cn(C2CCN(Cc3ccccc3)CC2)c2ccccc12 [Example 12],–,288 to 291 °C,49 nM
O=S(=O)(c1ccccc1)c1cn(C2CCNCC2)c2ccccc12 [Example 13],91 nM,294 to 297 °C,–
O=S(=O)(c1cccc2ccccc12)c1cn(C2CCCNC2)c2ccccc12 (stereo not drawn) [Example 14],21 nM,> 180 °C (dec.),–
O=S(=O)(c1cn(C2CCCNC2)c2ccccc12)c1cccc2cccnc12 (stereo not drawn) [Example 15],6 nM,> 195 °C (dec.),–
O=S(=O)(c1cccc(Cl)c1)c1cn(C2CCCNC2)c2ccccc12 (stereo not drawn) [Example 17],5 nM,> 150 °C (dec.),–
COc1ccc2c(c1)c(S(=O)(=O)c1cccc(F)c1)cn2C1CCCNC1 (stereo not drawn) [Example 18],11 nM,267 to 270 °C,–
COc1ccc2c(c1)c(S(=O)(=O)c1cccc(F)c1)cn2C1CCCN(C)C1 (stereo not drawn) [Example 19],68 nM,262 to 265 °C,–
O=S(=O)(c1cccc(F)c1)c1cn(C2CCCNC2)c2ccc(F)cc12 (stereo not drawn) [Example 20],4 nM,–,–
O=S(=O)(c1cccc(F)c1)c1cn(C2CCCNC2)c2ccc(Cl)cc12 (stereo not drawn) [Example 22],29 nM,–,–
CN1CCCC(n2cc(S(=O)(=O)c3cccc(F)c3)c3cc(Cl)ccc32)C1 (stereo not drawn) [Example 23],62 nM,242 to 245 °C,–

# Reference: US7589108B2, “1-Heterocyclylalkyl-3-sulfonylindole or -indazole derivatives as 5-hydroxytryptamine-6 ligands” (Wyeth, priority 2002, dated 2009)
